From PubChem BioAssay (NCI)
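Values below derive from 48-hour exposures of cells grown in 96-well plates, with endpoints linearly interpolated between the two concentrations bracketing the appropriate inhibition level. TGI marks complete inhibition of growth.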

What was measured:
Test in all cases: DTP human tumour cell line panel, 48 h
HOP-92 NSCLC = test system: HOP-92 NSCLC
LOX IMVI melanoma = test system: LOX IMVI melanoma
SR leukemia = test system: SR leukemia
SK-MEL-28 melanoma = test system: SK-MEL-28 melanoma
EKVX NSCLC = test system: EKVX NSCLC
MOLT-4 leukemia = test system: MOLT-4 leukemia
SNB-75 CNS = test system: SNB-75 CNS
HCT-15 colon = test system: HCT-15 colon
HCT-116 colon = test system: HCT-116 colon
BT-549 breast = test system: BT-549 breast

Structure (SMILES) | TGI (HOP-92 NSCLC) [µM] | TGI (LOX IMVI melanoma) [µM] | TGI (SR leukemia) [µM] | TGI (SK-MEL-28 melanoma) [µM] | TGI (EKVX NSCLC) [µM] | TGI (MOLT-4 leukemia) [µM] | TGI (SNB-75 CNS) [µM] | TGI (HCT-15 colon) [µM] | TGI (HCT-116 colon) [µM] | TGI (BT-549 breast) [µM]
CC[C@]1(Cc2ccc(OC)c(OC)c2)CN(S(=O)(=O)c2ccc(C)cc2)C[C@@H]1OC(C)=O | > 100 | > 100 | > 100 | > 100 | > 100 | > 100 | > 100 | > 100 |  | 
CCCCCCCCCCCCCCCCCCNc1ccn(C2OC(COP(=O)(O)OCC3OC(n4ccc(NC(=O)CCCCCCCCCCCCCCCCC)nc4=O)C(OC(C)=O)C3OC(C)=O)C(OC(C)=O)C2OC(C)=O)c(=O)n1 (stereo unspecified) |  | > 100 | > 100 | > 100 | > 100 | > 100 | > 100 | > 100 | > 100 | > 100
CC1=C2C(=O)NN=C2CCN1c1ccc(Br)cc1 | > 100 | > 100 |  | > 100 | > 100 | > 100 | > 100 | > 100 | > 100 | 75.1
S=C(N/N=C\C=N/NC(=S)N1CCCCC1)N1CCCCC1 | 45.8 | > 100 |  | > 100 | > 100 |  | > 100 | > 100 | > 100 | > 100
COc1cc2c(cc1OC)C1=Cc3cc(OC)c(OC)cc3C(C)N1C=C2 (stereo unspecified) | > 100 |  |  | > 100 | > 100 | > 100 | > 100 | > 100 | > 100 | > 100
O=C(O)CSc1nnc(COc2ccc(Cl)cc2)n1-c1ccccc1 | > 100 | > 100 |  | > 100 | > 100 | > 100 | > 100 | > 100 | > 100 | 
COc1cc(-c2cc(=O)c3cc4c(cc3[nH]2)OCO4)cc(OC)c1O | > 10 | > 10 | > 10 | > 10 | > 10 | > 10 | > 10 | > 10 | > 10 | 
CC(O[Si](c1ccccc1)(c1ccccc1)C(C)(C)C)[C@H](NC(=O)OC(C)(C)C)C(=O)O[Si](c1ccccc1)(c1ccccc1)C(C)(C)C (stereo partly specified) | 23.2 |  | 82 | 28.5 | 26.4 | 53.1 | 29 | 18.8 | 23.7 | 
C/C(CCOC1CCCCO1)=C(\C)[Si](C)(C)C (stereo unspecified) | > 100 | > 100 | > 100 | > 100 | > 100 | > 100 | > 100 | > 100 | > 100 | 
COc1ccc(-c2cc(-c3ccco3)c(C#N)c(=S)n2C2OC(COC(C)=O)C(OC(C)=O)C(OC(C)=O)C2OC(C)=O)cc1 (stereo unspecified) | 13 | 15.1 |  | 12.7 | 32.2 | > 100 | 17.7 | > 100 | 22.8 | 8.23
NC(=O)N/N=C(\Cc1nc2ccc(Cl)cc2[nH]c1=O)C(=O)Nc1ccc(Cl)cc1Cl |  | > 100 |  | > 100 | > 100 | > 100 | > 100 | > 100 | > 100 | > 100
Cc1nc2cccc([N+](=O)[O-])c2c(NCCCN(C)C)c1C | > 100 | > 100 | > 57.5 | > 100 | > 31.6 | > 85.1 | > 100 | > 52.8 | 59 | 
C=C(C(=O)C(=O)Oc1ccc(Cl)cc1)C(=O)c1ccc(C)cc1 | > 100 | 16.5 | 57.6 | > 100 | > 100 | > 100 | > 100 | > 100 | 30.3 | 
CC(C)=CCOC(=O)C(C)=[N+]=[N-] |  | > 100 | > 100 | > 100 | > 100 | > 100 | > 100 | > 100 | > 100 | > 100
CN(C)CCCOc1nc2c(c(=O)n(C)c(=O)n2C)n1C (tested in a mixture with another compound) | > 100 | 9.8 |  | > 100 | > 100 | 13.9 | > 100 | 42.9 | > 100 | > 100
COCCOCOc1ccc(OCc2ccccc2)cc1 | > 100 | > 100 |  | > 100 | 97.3 | > 100 | > 41.1 | > 100 | > 100 | 
O=c1[nH]n2c(=O)cc[nH]c2c1-c1nnns1 | > 100 | > 100 | > 100 | > 100 | > 100 | > 100 | > 100 | > 100 | > 100 | 
Cc1cc(N(CCC#N)CCC#N)ccc1/C=N/NC(=O)c1cc(Cl)ccc1O |  |  | > 100 |  | > 100 | > 100 | > 100 | > 100 | > 100 | 
CC1(Cl)C(=O)NC(=O)N(C2CC(N=[N+]=[N-])C(CO)O2)C1N=[N+]=[N-] (stereo unspecified) | > 100 | > 100 |  | > 100 | > 100 | > 100 | > 100 | > 100 |  | 
N=C1CSC2=NC3=C(CCC/C3=C\c3ccccc3)C(c3ccccc3)N12 (stereo unspecified) |  | 4.96 |  |  | 9.54 | 8.03 | 23.7 |  | 13.2 | 
CC(CN1c2ccccc2Sc2ccccc21)N(C)C (stereo unspecified) | 35.4 | 35.9 | 40.9 | 32.5 | 58.7 | 40.7 | 15.2 | 35.1 | 28.9 | 
CN(C)CCCOC(=O)C(c1ccccc1)C1(O)CCSCC1 (stereo unspecified) | > 100 | > 100 | > 100 | > 100 | > 100 | > 100 | > 100 | > 100 | > 100 | 
Nc1nc2cc3nc(N)c(N)nc3cc2nc1N |  | > 100 | > 100 | > 100 | > 100 | > 100 | > 100 | > 100 | > 100 | > 100
